{"source": "paper PMC10257182", "about": "“Discovery of senolytics using machine learning” (Nature Communications, 2023)", "type_in_all_cases": "cell-based, human", "key": {"[1]": {"test_system": "proliferating IMR90 cells", "experiment": "BrdU incorporation proliferation assay", "experimental": "5-bromo-2′-deoxyuridine (BrdU) incorporation was used to measure the number of cells actively replicating DNA. Cells were incubated with 10 μM BrdU (85811, Sigma) for 18 h. After that, cells were fixed with 4% Paraformaldehyde, permeabilised, blocked and then stained for immunofluorescence using BrdU primary antibody (555627 BD Pharmigen), Alexa fluor secondary for detection, and DAPI staining for cell counting. Acquisition was done with a Nikon TI2 microscope and analysis was performed with ImageJ for cell counting."}, "[2]": {"test_system": "A549 cells treated with 100 μM etoposide", "experiment": "Cell survival assay using crystal violet staining, TIS, senescent cells", "conditions": "fraction of Control DMSO = 1, n 15"}, "[3]": {"test_system": "IMR90 cells at passage 27 (replicative senescence)", "experiment": "Cell survival assay using crystal violet staining, replicative senescence", "set-up": "% Cell Survival: concentration or dose not given beside the values", "conditions": "FIG 4C; Replicative Senescence (RS) cells; individual replicate values, Control DMSO = 100", "excerpt": "IMR90 (CCL-186) human foetal lung fibroblasts and A549 (CCL-185) human lung adenocarcinoma cells were obtained from the American Type Culture Collection (ATCC, Manassas, VA). The cell lines were confirmed to be mycoplasma negative (Lonza MycoAlert, cat #LT07-118). IMR90 ER:RAS is a derivative of IMR90 cells expressing a switchable version of oncogenic H-Ras[84]. IMR90 ER:RAS and A549 cells were maintained in Dulbecco’s Modified Eagle Medium (DMEM, ThermoFisher) supplemented with foetal bovine serum (10%), L-glutamine (2 mM, ThermoFisher), and antibiotic-antimycotic solution (1%, ThermoFisher) and incubated under standard tissue culture conditions (37 °C and 5% CO2). For induction of the senescent phenotype, IMR90-ER:RAS cells were cultured in hydroxytamoxifen (4-OHT) (Sigma) added media at 100 nM final concentration. IMR90 were kept in culture for over 27 passages for replicative senescence. Cells were tested for mycoplasma on a regular basis.\n(§1) Equal numbers of control and senescent cells were plated at high density on multiwell plates just before senolytic treatment addition. After treatment, cells were fixed on 0.5% glutaraldehyde (Sigma) and then dried at RT overnight. Then, wells were stained with crystal violet solution for 3 h, washed and dried. Once they were completely dry, the plates were scanned for records. Quantification was performed extracting the staining with 1% acetic acid and measuring the final solution by absorbance at 595 nm."}, "[4]": {"test_system": "caspase 3/7 activity in senescent IMR90 ER:RAS cells", "experiment": "Caspase 3/7 activity assay", "set-up": "Caspase 3/7 activity time course (SUP FIG 9F) / Caspase 3/7 activity time course (SUP FIG 9F exp not shown): unit not given here", "conditions": "for Caspase 3/7 activity time course (SUP FIG 9F) / Caspase 3/7 activity time course (SUP FIG 9F exp not shown): ER:RAS cells; for Caspase 3/7 activity time course (SUP FIG 9F exp not shown): second experiment, data not shown", "experimental": "IMR90 ER:STOP and IMR90 ER:RAS cells were cultured with 100 nM 4-OHT for 5 days. Cell were then plated in a multiwell plate at high density. Once cells were attached, Caspase 3/7 probe (C10423 Invitrogen) and senolytic drugs, oleandrin, ouabain and periplocin at 10 nM, were added to the media and cultured for 36 h. Time lapse imaging was recorded every hour on a Leica AF6500 microscope (10x). ImageJ 1.53k was used for positive cell counting."}, "[5]": {"test_system": "control A549 cells", "experiment": "Cell survival assay using crystal violet staining, TIS, control cells", "conditions": "Control (no etoposide) cells; Control DMSO = 100; single replicates (SUP FIG 9E)", "experimental": "as §1, with “nm. […]” for “nm.”\n(§2) cells per condition is indicated. (d) Cell survival assay measuring the senolytic effect in lung cancer senescent cells. The panels show a representative crystal violet staining of tissue culture dishes of confluent A549 cells treated with 100 μM etoposide and control A549 cells, all treated with 10 nM oleandrin, ouabain and periplocin, and DMSO as vehicle control for 72 hours as indicated. (e) Graph representing the cell survival by quantification of the crystal violet staining of the experiment described in (d), as described in Methods. Data represented as individual datapoints, and bars and error bars representing the mean ± SEM of 14 independent experiments. Statistical analysis was performed using a one-way ANOVA (Tukey’s test) for multiple comparisons. […]\n(§3) Scale bars represent 100 μm. ns = not significant, * = p < 0.05, ** = p < 0.01, *** = p < 0.001, **** = p < 0.0001. Source data are provided as a Source Data file."}, "[6]": {"test_system": "A549 cells treated with 100 μM etoposide", "experiment": "Cell survival assay using crystal violet staining, TIS, senescent cells", "conditions": "Etoposide-treated (senescent) cells; Control DMSO = 100; single replicates (SUP FIG 9E)", "experimental": "as §1, with “nm. […]” for “nm.”\nas §2, §3"}, "[7]": {"test_system": "senescent IMR90 ER:RAS cells", "experiment": "Cell survival assay using crystal violet staining, OIS, senescent cells", "set-up": "% Cell Survival: concentration or dose not given beside the values", "experimental": "as §1"}, "[8]": {"test_system": "NOXA mRNA in IMR90 cells at passage 27", "experiment": "NOXA mRNA expression by RT-qPCR, replicative senescence", "conditions": "Replicative Senescence cells, 10 nM; relative to Control DMSO = 1; individual replicate values", "experimental": "Total RNA was isolated using RNAeasy kit (Quiagen). cDNA was generated with reverse transcriptase iScript (Bio-Rad). RT-qPCR was performed using SYBR Select Master Mix (Applied Biosystems) in OneStepPlus detection system (Applied Biosystems). Oligos for amplification were: NOXA Fw-[…] and Rv-[…]; b-ACTIN Fw-[…] and Rv-[…]; IL1a Fw-[…] and Rv- […]; IL1b Fw-[…] and Rv- […]; IL8 Fw-[…] and Rv-[…]; p16 Fw-CGGTCGGAGGCCGATCCAG and Rv- […]; p21Fw-[…] and Rv- […]."}, "[9]": {"test_system": "control IMR90 ER:STOP cells", "experiment": "Cell survival assay using crystal violet staining, OIS, control cells", "set-up": "% Cell Survival: concentration or dose not given beside the values", "experimental": "as §1"}}, "note": "Several values for one entry are separate records, joined by “and”; a condition that tells them apart may be missing. Equal entries are not always repeated."}
{"compound": "CO[C@H]1C[C@H](O[C@H]2CC[C@]3(C)[C@H]4CC[C@]5(C)[C@@H](C6=CC(=O)OC6)CC[C@]5(O)[C@@H]4CC[C@]3(O)C2)O[C@H](C)[C@H]1O[C@@H]1O[C@H](CO)[C@@H](O)[C@H](O)[C@H]1O", "note": "[Periplocin, periplocin]", "values": [{"measurement": "% BrdU positive cells, mean (Test details, Mean 2)", "setting": "[1]; IMR90 cells, n 4", "result": 68.52, "unit": "%"}, {"measurement": "% BrdU positive cells", "setting": "[1]; IMR90 cells, single replicates (SUP FIG 9G)", "result": "63.29% and 64.13% and 67.53% and 79.11%"}, {"measurement": "proliferation by BrdU incorporation, in words", "setting": "[1]; proliferating IMR90 cells, 10 nM", "result": "none of the cardiac glycosides induced unwanted changes in proliferation"}, {"measurement": "Cell survival, mean (Test details, Mean 2)", "setting": "[2]", "result": 0.873}, {"measurement": "% Cell Survival", "setting": "[3]", "result": "127.6% and 99.2% and 95.4% and 100.9% and 115.7% and 129.6% and 84.9% and 94.7% and 133.6% and 88.7% and 125.7% and 118.8%"}, {"measurement": "Caspase 3/7 activity time course (SUP FIG 9F)", "setting": "[4]; 01:00:00 hours", "result": 1.7}, {"measurement": "Caspase 3/7 activity time course (SUP FIG 9F exp not shown)", "setting": "[4]; 01:00:00 hours", "result": 0.05}, {"measurement": "Caspase 3/7 activity time course (SUP FIG 9F)", "setting": "[4]; 05:00:00 hours", "result": 2}, {"measurement": "Caspase 3/7 activity time course (SUP FIG 9F exp not shown)", "setting": "[4]; 05:00:00 hours", "result": 0.2}, {"measurement": "Caspase 3/7 activity time course (SUP FIG 9F)", "setting": "[4]; 10:00:00 hours", "result": 2.7}, {"measurement": "Caspase 3/7 activity time course (SUP FIG 9F exp not shown)", "setting": "[4]; 10:00:00 hours", "result": 1.2}, {"measurement": "Caspase 3/7 activity time course (SUP FIG 9F)", "setting": "[4]; 15:00:00 hours", "result": 2.7}, {"measurement": "Caspase 3/7 activity time course (SUP FIG 9F exp not shown)", "setting": "[4]; 15:00:00 hours", "result": 1.2}, {"measurement": "Caspase 3/7 activity time course (SUP FIG 9F)", "setting": "[4]; 20:00:00 hours", "result": 3}, {"measurement": "Caspase 3/7 activity time course (SUP FIG 9F exp not shown)", "setting": "[4]; 20:00:00 hours", "result": 2.55}, {"measurement": "Caspase 3/7 activity time course (SUP FIG 9F)", "setting": "[4]; 1 day, 1:00:00", "result": 3.5}, {"measurement": "Caspase 3/7 activity time course (SUP FIG 9F exp not shown)", "setting": "[4]; 1 day, 1:00:00", "result": 3.9}, {"measurement": "Caspase 3/7 activity time course (SUP FIG 9F)", "setting": "[4]; 1 day, 6:00:00", "result": 4}, {"measurement": "Caspase 3/7 activity time course (SUP FIG 9F exp not shown)", "setting": "[4]; 1 day, 6:00:00", "result": 6.15}, {"measurement": "Caspase 3/7 activity time course (SUP FIG 9F)", "setting": "[4]; 1 day, 11:00:00", "result": 4.8}, {"measurement": "Caspase 3/7 activity time course (SUP FIG 9F exp not shown)", "setting": "[4]; 1 day, 11:00:00", "result": 8.35}, {"measurement": "Casp3/7 activity (percentage of green fluorescent cells)", "setting": "[4]; ER:RAS, 100 nM 4OHT, 10 nM compound, 35 h", "result": 6.2, "unit": "%"}, {"measurement": "% Cell Survival", "setting": "[5]", "result": "90% and 112.2% and 107.2% and 111% and 106.6% and 104.9% and 102.9% and 93.8% and 98.6% and 110.6% and 109.7% and 108.4% and 94.2% and 93.9%"}, {"measurement": "% Cell Survival", "setting": "[6]", "result": "78.5% and 85.2% and 87.1% and 66.7% and 80.4% and 88.8% and 86.5% and 120% and 114.9% and 68.8% and 88.3% and 87.7% and 111.9% and 81.2%"}, {"measurement": "% Cell Survival", "setting": "[7]; FIG 4B, ER:RAS cells, individual replicate values, ER:STOP DMSO = 100", "result": "119.4% and 103.3% and 90.2% and 103.2% and 120.1% and 97.6% and 95% and 114.9% and 93.3% and 103% and 92.4%"}, {"measurement": "Mean (cell survival, Tukey test details)", "setting": "[7]; FIG 4B, ER:RAS cells, mean of n=12 as fraction of STOP DMSO = 1", "result": 1.03}, {"measurement": "cytotoxic activity / cellular content (crystal violet), in words", "setting": "[7]; IMR90-ER:RAS cells undergoing OIS, 10 nM, 72 h", "result": "no cytotoxic activity"}, {"measurement": "NOXA mRNA expression", "setting": "[8]", "result": "5.65 and 6.34 and 7.72"}, {"measurement": "% Cell Survival", "setting": "[9]; FIG 4B, ER:STOP cells, individual replicate values, ER:STOP DMSO = 100", "result": "103.3% and 93.7% and 87.3% and 112.7% and 104.8% and 100.7% and 97.3% and 88.4% and 100.5% and 85.6% and 102.9% and 98.7%"}, {"measurement": "Mean (cell survival, Tukey test details)", "setting": "[9]; FIG 4B, ER:STOP cells, mean of n=12 as fraction of STOP DMSO = 1", "result": 0.9799}, {"measurement": "cytotoxic activity (crystal violet), in words", "setting": "[9]; IMR90-ER:STOP proliferating control cells, 10 nM, 72 h", "result": "no cytotoxic activity"}]}
